As a reminder, the IC50 is the concentration needed to halve the response being measured.

The source of these data is article PMC10220648 (Viruses, 2023).

Like-named read-outs stand apart in the source and are kept apart here.

In one series the target is LMHT gp120CRF01_AE coree (Human immunodeficiency virus type 1, UniProt Q0ED31, DEL123-198/DEL305-311/DEL316-323/H375T/H60Y/I469M/K470R/N199G/N304G/N468D/P313S/Q104H/Q315S/T200G/V107I). The experiment in a line: biochemical. The class given is binding, HIV-1.
Series [1] relates to HIV-1CH58TF-infected primary CD4+ T cells. As to the kind of experiment: Anti-CoRBS 17b mAb binding to infected cells (flow cytometry). The following applies: 50 µM CD4mc; p24+ population; MFI. The series is classed as cell-based, human. A general note: Flow cytometry measures light scatter and fluorescence of single cells or particles in a stream.
Series [2] has the same test system. The experiment in a line: FACS-based ADCC assay with HIV+ plasma. The series is classed as cell-based, human. Conditions: 50µM compound; plasma 1/1000; effector/target 10:1.
The subject of the next series is HIV-1CH58TF. As to the kind of experiment: microbe, parasite or virus in culture. The series is classed as cell-based. Conditions: TZM-bl cells, average ± SD of at least three independent experiments, read-out: Viral neutralization IC50, HIV-1CH58TF.
For the next series, the system named is HIV-1JRFL. The class given is cell-based. Conditions: TZM-bl cells; tier-2 virus; average ± SD of at least three independent experiments.
Series [3] concerns HIV-1AD8-infected primary CD4+ T cells. As to the kind of experiment: HIV+ plasma cell-surface staining of infected cells. The class given is cell-based, human. Conditions: 50µM compound; plasma 1:1000.
Series [4] has as its system HIV-1JRFL-infected primary CD4+ T cells. The experiment in a line: Anti-CoRBS 17b mAb binding to infected cells (flow cytometry). The series is classed as cell-based, human. The following applies: 50 µM CD4mc; p24+ population; MFI.
For a further series, the system named is HIV-1AD8. The experiment in a line: microbe, parasite or virus in culture. The class given is cell-based. Conditions: TZM-bl cells, tier-2 virus, average ± SD of at least three independent experiments, read-out: Viral neutralization IC50, HIV-1AD8.
Series [5] concerns HIV-1CH58TF-infected primary CD4+ T cells. The experiment in a line: HIV+ plasma cell-surface staining of infected cells. The series is classed as cell-based, human. Conditions: 50µM compound; plasma 1:1000.
The subject of a further series is VSV-G pseudovirus. The experiment in a line: microbe, parasite or virus in culture. The class given is cell-based. The following applies: TZM-bl, read-out: Viral neutralization IC50, VSV-G Pseudovirus.
Series [6] concerns HIV-1AD8-infected primary CD4+ T cells. The experiment in a line: FACS-based ADCC assay with HIV+ plasma. The series is classed as cell-based, human. Conditions: 50µM compound; plasma 1/1000; effector/target 10:1.
The subject of series [7] is HIV-1JRFL-infected primary CD4+ T cells. The experiment in a line: HIV+ plasma cell-surface staining of infected cells. The class given is cell-based, human. Conditions: 50µM compound; plasma 1:1000.
Series [8] shares this test system. As to the kind of experiment: FACS-based ADCC assay with HIV+ plasma. The class given is cell-based, human. The following applies: 50µM compound; plasma 1/1000; effector/target 10:1.
Setting [9] is: Human immunodeficiency virus 1, TZM-bl.

Consider `NCCNC(=O)N1CCC[C@H](C(=O)Nc2ccc(Cl)c(F)c2)C1` [MCG-IV-210, reference compound], for which the IC50 against LMHT gp120CRF01_AE coree is 0.969 µM; in the series on HIV-1CH58TF (setting [9]) it was 3.46 ± 1.06 µM; in the series on HIV-1AD8 (setting [9]) it was greater than 100 µM; with VSV-G pseudovirus it was greater than 100 µM. Moreover, in series [1], the “17b binding (exposure of the CoRBS), HIV-1CH58TF-infected cells” value was “exposed the CoRBS”. Further, the “Susceptibility to ADCC mediated by HIV+ plasma, HIV-1CH58TF” value in series [2] is “enhanced”. For the same compound, the “Viral neutralization IC50, HIV-1JRFL” value in the series with HIV-1JRFL is “unable to inhibit viral infection”. Besides, the “HIV+ plasma binding (recognition of infected cells), HIV-1AD8” value (from here on “HIV+ plasma binding … HIV-1AD8”) in series [3] is on record as “did not promote HIV+ plasma binding”. Besides, the “17b binding (exposure of the CoRBS), HIV-1JRFL-infected cells” value (“17b binding … HIV-1JRFL-infected cells” for short) in [4] was “but not the tier-2 HIV-1JRFL”. Also, the “HIV+ plasma binding (recognition of infected cells), HIV-1CH58TF” value in series [5] is on record as “enhanced the recognition”.

As to `C[C@@H]1CN(C(=O)N2C[C@H](CN)C[C@H](C(=O)Nc3ccc(Cl)c(F)c3)C2)C[C@H](C)N1C` [ZXC-I-092], the values for the IC50 with HIV-1CH58TF (setting [9]), with HIV-1AD8 (setting [9]) and with VSV-G pseudovirus were 0.75 ± 0.12 µM, 34 ± 13.8 µM and greater than 100 µM, respectively. In addition, in series [4], the “17b binding … HIV-1JRFL-infected cells” value is recorded as “successfully exposed the CoRBS”.

With `CN1CCN(C(=O)N2C[C@H](CN)C[C@H](C(=O)Nc3ccc(Cl)c(F)c3)C2)CC1` [ZXC-I-090], the IC50 with HIV-1CH58TF (setting [9]) was 2.63 ± 0.5 µM; with HIV-1AD8 (setting [9]), greater than 100 µM; in the series on VSV-G pseudovirus it was greater than 100 µM.

For `CN1CCN(C(=O)N2CCC[C@H](C(=O)Nc3ccc(Cl)c(F)c3)C2)CC1` [TFH-I-070-A6], the IC50 is 0.45 ± 0.09 µM in the series with HIV-1CH58TF (setting [9]), 9.59 ± 3.4 µM in the series on HIV-1AD8 (setting [9]) and greater than 100 µM with VSV-G pseudovirus. Besides, the “HIV+ plasma binding … HIV-1AD8” value in series [3] is “did”. In addition, the “17b binding … HIV-1JRFL-infected cells” value in [4] is on record as “successfully exposed the CoRBS”.

For `O=C(O)CN1CCN(C(=O)N2C[C@H](CO)C[C@H](C(=O)Nc3ccc(Cl)c(F)c3)C2)CC1` (racemic) [DL-I-102], the IC50 against LMHT gp120CRF01_AE coree is 0.561 µM; in the series on HIV-1CH58TF (setting [9]), 0.66 ± 0.25 µM; in the series with HIV-1AD8 (setting [9]) it was 87 ± 39 µM; in the series on VSV-G pseudovirus, greater than 100 µM. Further, the “17b binding … HIV-1JRFL-infected cells” value in [4] is listed as “successfully exposed the CoRBS”.

Turning to `NCC(=O)N1CCN(C(=O)N2C[C@H](CO)C[C@H](C(=O)Nc3ccc(Cl)c(F)c3)C2)CC1` (racemic) [DL-I-101], the IC50 against LMHT gp120CRF01_AE coree was 0.308 µM; in the series on HIV-1CH58TF (setting [9]), 0.16 ± 0.03 µM; in the series with HIV-1AD8 (setting [9]) it was 10.2 ± 3.1 µM; in the series on VSV-G pseudovirus, greater than 100 µM. The “Susceptibility to ADCC mediated by HIV+ plasma, HIV-1AD8” value in series [6] is “translated into ADCC”. In [3], the “HIV+ plasma binding … HIV-1AD8” value was “did”. For the same compound, in series [4], the “17b binding … HIV-1JRFL-infected cells” value is “successfully exposed the CoRBS”.

With `CC1CN(C(=O)N2CCCC(C(=O)Nc3ccc(Cl)c(F)c3)C2)CC(C)N1C` (stereo not shown) [TFH-I-116-D1], the “HIV+ plasma binding (recognition of infected cells), HIV-1JRFL” value in series [7] was “recognized the infected cells”. Moreover, the “Susceptibility to ADCC mediated by HIV+ plasma, HIV-1AD8” value in [6] is “translated into ADCC”. Moreover, the IC50 is 0.0655 µM with HIV-1CH58TF (setting [9]), 4.8 µM with HIV-1AD8 (setting [9]) and greater than 100 µM in the series on VSV-G pseudovirus. In series [3], the “HIV+ plasma binding … HIV-1AD8” value is “did”. Moreover, the “17b binding … HIV-1JRFL-infected cells” value in series [4] is “successfully exposed the CoRBS”. In addition, in [8], the “Susceptibility to ADCC mediated by HIV+ plasma, HIV-1JRFL” value is recorded as “not translated into enhanced ADCC”.

For `CNCc1ccc2c(c1)C[C@H](CNC(=N)N)[C@H]2NC(=O)C(=O)Nc1ccc(Cl)c(F)c1` [BNM-III-170, reference compound], the “Susceptibility to ADCC mediated by HIV+ plasma, HIV-1CH58TF” value in series [2] is “enhanced”. The IC50 is 0.0336 µM with HIV-1CH58TF (setting [9]); 0.033 ± 0.01 µM with HIV-1CH58TF; 3.75 µM with HIV-1AD8 (setting [9]); 3.75 ± 1.3 µM with HIV-1AD8; greater than 100 µM in the series on VSV-G pseudovirus. In addition, the “HIV+ plasma binding (recognition of infected cells), HIV-1CH58TF” value in [5] is listed as “enhanced the recognition”.
